Patent US7015228B2, “4-amino-2-(2-pyridyl)pyrimidines as microbicidal active substances” (Ciba Specialty Chemicals Corporation, priority 2001, dated 2006)
Values after ≈ are worked out from the molar mass of the structure shown.

What was measured:
Type in all cases: cell-based
[1] = test system: Escherichia coli NCTC 8196; assay: Minimum inhibitory concentration (MIC) in microtitre plates; conditions: for Minimum inhibitory concentration (MIC) E. coli: Table 7, 48 hours at 37° C., MIC = ≦20% growth compared to control; for Minimum inhibitory concentration (MIC) E. coli NCTC 8196: Table 8, * = significant inhibition of growth, but not complete inhibition
Outline: (§1)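 Compounds in DMSO, 1:2 dilution series; bacteria at 1–5×10^6 CFU/ml diluted 1:100 in CASO broth. Incubation 48 h at 37° C, growth read as OD 620 nm. MIC is the lowest concentration giving ≤20% growth relative to control; duplicates.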

[2] = test system: Staphylococcus hominis DMS 20328; assay: as above; conditions: Table 7; 48 hours at 37° C.; MIC = ≦20% growth compared to control
Outline: as §1

[3] = test system: Aspergillus niger ATCC 6275; assay: Minimum inhibitory concentration (MIC), further microorganisms; conditions: Table 8; * = significant inhibition of growth, but not complete inhibition
Protocol: (§2) Determination of the Minimum Inhibitory Concentration (MIC Value) in Microtitre Plates
(§3) Casein-soybean flour-peptone broth for preparation of pre-cultures of test bacteria and yeast.
(§4) Mycological slant agar for the pre-culture of moulds
(§5) The test substances are pre-dissolved in dimethyl sulfoxide (DMSO) and tested in a dilution series of 1:2.
(§6) Bacteria and yeast are cultured overnight in CASO broth, the mould is cultured overnight on mycological slant agar, and washed off using 10 ml of 0.85% sodium chloride solution (+0.1% Triton X-100).
(§7) All the test organisms are adjusted to an organism count of 1–5×10^6 CFU/ml using 0.85% sodium chloride solution.
(§8) The test substances are pre-pipetted into microtitre plates in amounts of 8 μl per well.
(§9) Pre-diluted organism suspensions are diluted 1:100 in CASO broth (bacteria and yeast) or Sabouraud 2% glucose broth (mould) and are added in amounts of 192 μl per well to the test substances.
(§10) The test batches are incubated for 48 hours at 37° C. (bacteria and yeast) or for 5 days at 28° C. (mould).
(§11) After incubation, the growth is determined on the basis of the turbidity of the test batches (optical density) at 620 nm in a microplate reader.
(§12) The minimum inhibitory concentration (MIC value) is the concentration of substance at which there is found (compared to the growth of the control) an appreciable inhibition of growth (≦20% growth) of the test organisms.
(§13) One microtitre plate is used for each test organism and substance concentration. All the substances are tested in duplicate.

[4] = test system: Candida albicans ATCC 10231; assay: as above; conditions: Table 8; * = significant inhibition of growth, but not complete inhibition
Protocol: as §2, §3, §4, §5, §6, §7, §8, §9, §10, §11, §12, §13

[5] = test system: Enterococcus hirae ATCC 10541; assay: as above; conditions: Table 8; * = significant inhibition of growth, but not complete inhibition
Protocol: as §2, §3, §4, §5, §6, §7, §8, §9, §10, §11, §12, §13

[6] = test system: Epidermophyton floccosum DSM 10709; assay: as above; conditions: Table 8; * = significant inhibition of growth, but not complete inhibition
Protocol: as §2, §3, §4, §5, §6, §7, §8, §9, §10, §11, §12, §13

[7] = test system: Klebsiella pneumonia ATCC 4352; assay: as above; conditions: Table 8; * = significant inhibition of growth, but not complete inhibition
Protocol: as §2, §3, §4, §5, §6, §7, §8, §9, §10, §11, §12, §13

[8] = test system: Micrococcus luteus ATCC 9341; assay: as above; conditions: Table 8; * = significant inhibition of growth, but not complete inhibition
Protocol: as §2, §3, §4, §5, §6, §7, §8, §9, §10, §11, §12, §13

[9] = test system: Pseudomonas aeruginosa CIP A-22; assay: as above; conditions: Table 8
Protocol: as §2, §3, §4, §5, §6, §7, §8, §9, §10, §11, §12, §13

[10] = test system: S. epidermidis ATCC 12228; assay: as above; conditions: Table 8; * = significant inhibition of growth, but not complete inhibition
Protocol: as §2, §3, §4, §5, §6, §7, §8, §9, §10, §11, §12, §13

[11] = test system: Salmonella choleraesuis ATCC 10708; assay: as above; conditions: Table 8
Protocol: as §2, §3, §4, §5, §6, §7, §8, §9, §10, §11, §12, §13

[12] = test system: Staphylococcus aureus ATCC 9144; assay: as above; conditions: Table 8; * = significant inhibition of growth, but not complete inhibition
Protocol: as §2, §3, §4, §5, §6, §7, §8, §9, §10, §11, §12, §13

[13] = test system: Trichophyton mentagrophytes ATCC 9533; assay: as above; conditions: Table 8; * = significant inhibition of growth, but not complete inhibition
Protocol: as §2, §3, §4, §5, §6, §7, §8, §9, §10, §11, §12, §13

## Cc1cc(NCCCCCCCCCN)nc(-c2ccccn2)n1 [compound 18]
[1]
  Minimum inhibitory concentration (MIC) E. coli: >120 µg/mL
  Minimum inhibitory concentration (MIC) E. coli NCTC 8196: >60 µg/mL
[2]
  Minimum inhibitory concentration (MIC) S. hominis: 120 µg/mL (≈ 366 µM)
[3]
  Minimum inhibitory concentration (MIC) Aspergillus niger ATCC 6275: >60 µg/mL
[4]
  Minimum inhibitory concentration (MIC) Candida albicans ATCC 10231: >60 µg/mL
[5]
  Minimum inhibitory concentration (MIC) Enterococcus hirae ATCC 10541: >60 µg/mL
[6]
  Minimum inhibitory concentration (MIC) Epidermophyton floccosum DSM 10709: >60 µg/mL
[7]
  Minimum inhibitory concentration (MIC) Klebsiella pneumonia ATCC 4352: >60 µg/mL
[8]
  Minimum inhibitory concentration (MIC) Micrococcus luteus ATCC 9341: >60 µg/mL
[9]
  Minimum inhibitory concentration (MIC) Pseudomonas aeruginosa CIP A-22: >60 µg/mL
[10]
  Minimum inhibitory concentration (MIC) S. epidermidis ATCC 12228: >60 µg/mL
[11]
  Minimum inhibitory concentration (MIC) Salmonella choleraesuis ATCC 10708: >60 µg/mL
[12]
  Minimum inhibitory concentration (MIC) Staphylococcus aureus ATCC 9144: >60 µg/mL
[13]
  Minimum inhibitory concentration (MIC) Trichophyton mentagrophytes ATCC 9533: >60 µg/mL

## Cc1cc(NCCCCCCCCCCCCN)nc(-c2ccccn2)n1 [compound 19]
[1]
  Minimum inhibitory concentration (MIC) E. coli: 60 µg/mL (≈ 162 µM)
  Minimum inhibitory concentration (MIC) E. coli NCTC 8196: >60 µg/mL
[2]
  Minimum inhibitory concentration (MIC) S. hominis: 15 µg/mL (≈ 40.6 µM)
[3]
  Minimum inhibitory concentration (MIC) Aspergillus niger ATCC 6275: >60 µg/mL
[4]
  Minimum inhibitory concentration (MIC) Candida albicans ATCC 10231: 7.5 µg/mL (≈ 20.3 µM)
[5]
  Minimum inhibitory concentration (MIC) Enterococcus hirae ATCC 10541: 60 µg/mL (≈ 162 µM)
[6]
  Minimum inhibitory concentration (MIC) Epidermophyton floccosum DSM 10709: >60 µg/mL
[7]
  Minimum inhibitory concentration (MIC) Klebsiella pneumonia ATCC 4352: >60 µg/mL
[8]
  Minimum inhibitory concentration (MIC) Micrococcus luteus ATCC 9341: 7.5 µg/mL (≈ 20.3 µM)
[9]
  Minimum inhibitory concentration (MIC) Pseudomonas aeruginosa CIP A-22: >60 µg/mL
[10]
  Minimum inhibitory concentration (MIC) S. epidermidis ATCC 12228: 60 µg/mL (≈ 162 µM)
[11]
  Minimum inhibitory concentration (MIC) Salmonella choleraesuis ATCC 10708: >60 µg/mL
[12]
  Minimum inhibitory concentration (MIC) Staphylococcus aureus ATCC 9144: 60 µg/mL (≈ 162 µM)
[13]
  Minimum inhibitory concentration (MIC) Trichophyton mentagrophytes ATCC 9533: >60 µg/mL

## CCCCCCCCNc1cc(C)nc(-c2ccccn2)n1 [compound 21]
[1]
  Minimum inhibitory concentration (MIC) E. coli: 60 µg/mL (≈ 201 µM)
  Minimum inhibitory concentration (MIC) E. coli NCTC 8196: 120 µg/mL (≈ 402 µM)
[2]
  Minimum inhibitory concentration (MIC) S. hominis: 3.75 µg/mL (≈ 12.6 µM)
[3]
  Minimum inhibitory concentration (MIC) Aspergillus niger ATCC 6275: >60 µg/mL
[4]
  Minimum inhibitory concentration (MIC) Candida albicans ATCC 10231: 120 µg/mL (≈ 402 µM)
[5]
  Minimum inhibitory concentration (MIC) Enterococcus hirae ATCC 10541: 120 µg/mL (≈ 402 µM)
[6]
  Minimum inhibitory concentration (MIC) Epidermophyton floccosum DSM 10709: >60 µg/mL
[7]
  Minimum inhibitory concentration (MIC) Klebsiella pneumonia ATCC 4352: 120 µg/mL (≈ 402 µM)
[8]
  Minimum inhibitory concentration (MIC) Micrococcus luteus ATCC 9341: 120 µg/mL (≈ 402 µM)
[9]
  Minimum inhibitory concentration (MIC) Pseudomonas aeruginosa CIP A-22: >120 µg/mL
[10]
  Minimum inhibitory concentration (MIC) S. epidermidis ATCC 12228: 120 µg/mL (≈ 402 µM)
[11]
  Minimum inhibitory concentration (MIC) Salmonella choleraesuis ATCC 10708: >120 µg/mL
[12]
  Minimum inhibitory concentration (MIC) Staphylococcus aureus ATCC 9144: 120 µg/mL (≈ 402 µM)
[13]
  Minimum inhibitory concentration (MIC) Trichophyton mentagrophytes ATCC 9533: >60 µg/mL

## CCCCCCCCCNc1cc(C)nc(-c2ccccn2)n1 [compound 22]
[1]
  Minimum inhibitory concentration (MIC) E. coli: 120 µg/mL (≈ 384 µM)
  Minimum inhibitory concentration (MIC) E. coli NCTC 8196: >60 µg/mL
[2]
  Minimum inhibitory concentration (MIC) S. hominis: 3.75 µg/mL (≈ 12 µM)
[3]
  Minimum inhibitory concentration (MIC) Aspergillus niger ATCC 6275: 60 µg/mL (≈ 192 µM)
[4]
  Minimum inhibitory concentration (MIC) Candida albicans ATCC 10231: 15 µg/mL (≈ 48 µM)
[5]
  Minimum inhibitory concentration (MIC) Enterococcus hirae ATCC 10541: <3.75 µg/mL
[6]
  Minimum inhibitory concentration (MIC) Epidermophyton floccosum DSM 10709: *7.5 μg/mL
[7]
  Minimum inhibitory concentration (MIC) Klebsiella pneumonia ATCC 4352: >60 µg/mL
[8]
  Minimum inhibitory concentration (MIC) Micrococcus luteus ATCC 9341: <3.75 µg/mL
[9]
  Minimum inhibitory concentration (MIC) Pseudomonas aeruginosa CIP A-22: >60 µg/mL
[10]
  Minimum inhibitory concentration (MIC) S. epidermidis ATCC 12228: <3.75 µg/mL
[11]
  Minimum inhibitory concentration (MIC) Salmonella choleraesuis ATCC 10708: >60 µg/mL
[12]
  Minimum inhibitory concentration (MIC) Staphylococcus aureus ATCC 9144: 7.5 µg/mL (≈ 24 µM)
[13]
  Minimum inhibitory concentration (MIC) Trichophyton mentagrophytes ATCC 9533: 15 µg/mL (≈ 48 µM)

## CCCCCCCCCCCCNc1cc(C)nc(-c2ccccn2)n1 [compound 24]
[1]
  Minimum inhibitory concentration (MIC) E. coli: 80 µg/mL (≈ 226 µM)
  Minimum inhibitory concentration (MIC) E. coli NCTC 8196: >60 µg/mL
[2]
  Minimum inhibitory concentration (MIC) S. hominis: 2.5 µg/mL (≈ 7.05 µM)
[3]
  Minimum inhibitory concentration (MIC) Aspergillus niger ATCC 6275: >60 µg/mL
[4]
  Minimum inhibitory concentration (MIC) Candida albicans ATCC 10231: 30 µg/mL (≈ 84.6 µM)
[5]
  Minimum inhibitory concentration (MIC) Enterococcus hirae ATCC 10541: *15 μg/mL
[6]
  Minimum inhibitory concentration (MIC) Epidermophyton floccosum DSM 10709: 60 µg/mL (≈ 169 µM)
[7]
  Minimum inhibitory concentration (MIC) Klebsiella pneumonia ATCC 4352: >60 µg/mL
[8]
  Minimum inhibitory concentration (MIC) Micrococcus luteus ATCC 9341: <3.75 µg/mL
[9]
  Minimum inhibitory concentration (MIC) Pseudomonas aeruginosa CIP A-22: >60 µg/mL
[10]
  Minimum inhibitory concentration (MIC) S. epidermidis ATCC 12228: 3.75 µg/mL (≈ 10.6 µM)
[11]
  Minimum inhibitory concentration (MIC) Salmonella choleraesuis ATCC 10708: >60 µg/mL
[12]
  Minimum inhibitory concentration (MIC) Staphylococcus aureus ATCC 9144: <3.75 µg/mL
[13]
  Minimum inhibitory concentration (MIC) Trichophyton mentagrophytes ATCC 9533: >60 µg/mL
